In brackets after ≈: the same amount, converted by molar mass.

Test [1] has as its system vancomycin-resistant Enterococcus faecalis (VanA VRE, BM4166). The note with it: BM 4166; previously reported data; cited from earlier work.
Test [2] has as its system Enterococcus faecium (VanA VRE, ATCC BAA-2317). The following applies: previously reported data; cited from earlier work.
The subject of test [3] is vancomycin-resistant Enterococcus faecalis (VanA VRE, BM4166). Description: In vitro antimicrobial assay (MIC), VanA E. faecalis. It counts as cell-based. The note with it: for MIC: Enterococcus faecalis, VRE, read-out: Antimicrobial Activity, MIC, VanA E. faecalis; for antibiotic susceptibility profile of the strain: VanA E. faecalis BM 4166. From the text:
(§1) One day before a study was run, fresh cultures of vancomycin-sensitive Staphylococcus aureus (VSSA strain ATCC 25923), methicillin and oxacillin-resistant Staphylococcus aureus subsp. aureus (MRSA strain ATCC 43300), vancomycin-resistant Enterococcus faecalis (VanA VRE, BM4166), Enterococcus faecium (VanA VRE, ATCC BAA-2317), vancomycin-resistant Enterococcus faecalis (VanB VRE, strain ATCC 51299), Escherichia coli (ATCC 25922), Acinetobacter baumannii (ATCC BAA-1710), Pseudomonas aeruginosa (ATCC 15442), Klebsiella pneumoniae (ATCC 700603) were inoculated and grown in an orbital shaker at 37° C. in 100% Mueller-Hinton broth (VSSA, MRSA and VanB VRE), 100% brain-heart infusion broth (VanA VRE, A. baumannii and K. pneumoniae) or 100% Luria broth (E. coli and P. aeruginosa). After 24 hours, the bacterial stock solutions were serially diluted with the culture medium (10% Mueller-Hinton broth for VSSA, MRSA and VanB VRE or 10% brain-heart infusion broth for VanA VRE A. baumannii and K. pneumoniae or 10% Luria Broth for E. coli and P. aeruginosa) to achieve a turbidity equivalent to a 1:100 dilution of a 0.5 M McFarland solution. This diluted bacterial stock solution was then inoculated in a 96-well V-shaped glass coated microtiter plate, supplemented with serial diluted aliquots of the antibiotic solution in DMSO (4 μL), to achieve a total assay volume of 0.1 mL. The plate was then incubated at 37° C. for 18 hours, after which minimal inhibitory concentrations (MICs) were determined by monitoring the cell growth (observed as a pellet) in the wells.
(§2) The lowest concentration of antibiotic (in μg/mL) capable of eliminating cell growth in the wells is the reported MIC value. The reported MIC values for the vancomycin analogues were determined against vancomycin as a standard in the first well.*
(§3) [*Clinical and Laboratory Standards Institute. Methods for Dilution Antimicrobial Susceptibility Tests for Bacteria That Grow Aerobically; Approved Standard, 7th ed.; CLSI document M07-A8; Clinical and Laboratory Standards Institute: Wayne, Pa., 2009.]

Test [4] deals with VanA VRE (E. faecalis BM 4166 and E. faecium ATCC BAA-2317). In words: Cell wall permeability assay (propidium iodide uptake). The format is cell-based, Enterococcus faecalis; Enterococcus faecium. From the text: The effect of the compounds on cell membrane permeability was examined by measuring cytoplasmic membrane uptake of the fluorescent probe propidium iodide in the same VanA vancomycin-resistant E. faecalis (BM 4166) and E. faecium (ATCC BAA-2317) strains. This fluorescent probe only enters cells with permeabilized cell membranes and is detected by the emission of fluorescence upon intracellular nucleic acid binding [Boulos et al., J Microbiol Methods 1999, 37(1):77-86].
Fresh, mid-log phase VanA VRE in pH 7.2 buffer at 25° C. were preincubated with propidium iodide (10 μM) for 5 minutes before the test compounds were added, monitoring the fluorescence emission at 617 nm (excitation at 535 nm) over time, both pre (5 minutes) and post (15 minutes) compound addition. Rapid and sustained increases in fluorescence intensity are observed immediately upon addition of test compounds that induce bacterial cell membrane permeability.
One day before a study was run, cultures of vancomycin-resistant Enterococcus faecalis (VanA VRE, BM4166) and Enterococcus faecium (VanA VRE, ATCC BAA-2317), were inoculated and grown in an orbital shaker at 37° C. in 100% brain-heart infusion broth for 12 hours. The above bacterial solution was subjected to a subculture to obtain fresh mid-log phase bacterial cells (total volume of bacterial suspension=7 mL, incubation time=6 hours, OD600=0.6). After the cultured bacteria were harvested (3000 rpm, 4° C., 20 minutes), the white bacterial precipitate was washed and resuspended in 5 mM glucose and 5 mM HEPES buffer (1:1, 500 μL, pH=7.2).
This bacterial suspension (130 μL) was charged into a 96-well black plate with a clear bottom (Corning 3650). The propidium iodide dye (10 μL, 150 μM DMSO solution) was added to the above suspension and the fluorescence was monitored at 25° C. for 5 minutes at 30 second intervals using a microplate reader (Molecular Devices®, Max Gemini EX) at an excitation wavelength of 535 nm and an emission wavelength of 617 nm. The test compound (150 μM, 10 μL) was added to the cell suspension and the fluorescence was monitored at 25° C. for an additional 15 minutes.

Test [5] has as its system Enterococcus faecium (VanA VRE, ATCC BAA-2317). In words: In vitro antimicrobial assay (MIC), VanA E. faecium. The format is cell-based. The note with it: for MIC: Enterococcus faecium, read-out: Antimicrobial Activity, MIC, VanA E. faecium; for antibiotic susceptibility profile of the strain: VanA E. faecium ATCC BAA-2317.
Text: as §1, §2, §3

For the compound `CNC(CC(C)C)C(=O)NC1C(=O)NC(CC(N)=O)C(=O)NC2C(=N)NC3C(=O)NC(C(=O)NC(C(=O)O)c4cc(O)cc(O)c4-c4cc3ccc4O)C(O)c3ccc(c(Cl)c3)Oc3cc2cc(c3OC2OC(CO)C(O)C(O)C2OC2CC(C)(N)C(O)C(C)O2)Oc2ccc(cc2Cl)[C@@H]1O` (stereo partly drawn) [Compound 3], in test [1], the “Antimicrobial Activity, MIC, VanA E. faecalis” value is 0.5 µg/mL. The “Antimicrobial Activity, MIC, VanA E. faecium” value in test [2] was 0.5 µg/mL.
`CN[C@H](CC(C)C)C(=O)N[C@H]1C(=O)N[C@@H](CC(N)=O)C(=O)N[C@H]2C(=O)N[C@@H]3C(=O)N[C@H](C(=O)N[C@H](C(=O)NCCCN(C)C)c4cc(O)cc(O)c4-c4cc3ccc4O)[C@H](O)c3ccc(c(Cl)c3)Oc3cc2cc(c3OC2OC(CO)C(O)[C@H](O)[C@@H]2O[C@H]2CC(C)(N)[C@H](O)[C@H](C)O2)Oc2ccc(cc2Cl)[C@H]1O` (stereo partly drawn) [Compound 9]: the MIC in test [3] and in test [5] was 500 µg/mL (≈ 326 µM) in each case. Moreover, in test [4] (10 μM compound), the “induced cell membrane permeability (propidium uptake)” value (shortened to “induced cell membrane permeability”) was “did not do so”.
Regarding `CN[C@H](CC(C)C)C(=O)N[C@H]1C(=O)N[C@@H](CC(N)=O)C(=O)N[C@H]2C(=O)N[C@@H]3C(=O)N[C@H](C(=O)N[C@H](C(=O)NCCC[N+](C)(C)C)c4cc(O)cc(O)c4-c4cc3ccc4O)[C@H](O)c3ccc(c(Cl)c3)Oc3cc2cc(c3OC2OC(CO)C(O)[C@H](O)[C@@H]2O[C@H]2CC(C)(N)[C@H](O)[C@H](C)O2)Oc2ccc(cc2Cl)[C@H]1O` (stereo partly drawn) [Compound 10], the MIC is 63 µg/mL in test [3] and 126 µg/mL in test [5]. Besides, the “induced cell membrane permeability” value in test [4] (10 μM compound) is given as “did not do so”; in test [4] (100 μM compound) it was “exhibited this induced permeability”.
`CN[C@H](CC(C)C)C(=O)N[C@H]1C(=O)N[C@@H](CC(N)=O)C(=O)N[C@H]2C(=O)N[C@@H]3C(=O)N[C@H](C(=O)N[C@H](C(=O)NCCC[N+]4(C)CCCC4)c4cc(O)cc(O)c4-c4cc3ccc4O)[C@H](O)c3ccc(c(Cl)c3)Oc3cc2cc(c3OC2OC(CO)C(O)[C@H](O)[C@@H]2O[C@H]2CC(C)(N)[C@H](O)[C@H](C)O2)Oc2ccc(cc2Cl)[C@H]1O` (stereo partly drawn) [Compound 11]: the results for the MIC in test [3] and in test [5] were 4 µg/mL and 2 µg/mL, respectively. In test [4] (10 μM compound), the “induced cell membrane permeability” value is on record as “produced pronounced, rapid cell membrane permeability”.
For the compound `CN[C@H](CC(C)C)C(=O)N[C@H]1C(=O)N[C@@H](CC(N)=O)C(=O)N[C@H]2C(=O)N[C@@H]3C(=O)N[C@H](C(=O)N[C@H](C(=O)NCCCN(C)C)c4cc(O)cc(O)c4-c4cc3ccc4O)[C@H](O)c3ccc(c(Cl)c3)Oc3cc2cc(c3OC2OC(CO)C(O)[C@H](O)[C@@H]2O[C@H]2CC(C)(NCc3ccc(-c4ccc(Cl)cc4)cc3)[C@H](O)[C@H](C)O2)Oc2ccc(cc2Cl)[C@H]1O` (stereo partly drawn) [Compound 14], the MIC in test [3] and in test [5] was 5 µg/mL (≈ 2.88 µM) each time.
For the compound `CN[C@H](CC(C)C)C(=O)N[C@H]1C(=O)N[C@@H](CC(N)=O)C(=O)N[C@H]2C(=O)N[C@@H]3C(=O)N[C@H](C(=O)N[C@H](C(=O)NCCC[N+]4(C)CCCC4)c4cc(O)cc(O)c4-c4cc3ccc4O)[C@H](O)c3ccc(c(Cl)c3)Oc3cc2cc(c3OC2OC(CO)C(O)[C@H](O)[C@@H]2O[C@H]2CC(C)(NCc3ccc(-c4ccc(Cl)cc4)cc3)[C@H](O)[C@H](C)O2)Oc2ccc(cc2Cl)[C@H]1O` (stereo partly drawn) [Compound 16], the MIC in test [3] and in test [5] was 2 µg/mL throughout.
As to `CCCCCCCCCCCCCC[N+](C)(C)CCCNC(=O)[C@H]1NC(=O)[C@H]2NC(=O)[C@@H](NC(=O)[C@@H]3NC(=O)[C@H](CC(N)=O)NC(=O)[C@H](NC(=O)[C@@H](CC(C)C)NC)[C@H](O)c4ccc(c(Cl)c4)Oc4cc3cc(c4OC3OC(CO)C(O)[C@H](O)[C@@H]3O[C@H]3CC(C)(NCc4ccc(-c5ccc(Cl)cc5)cc4)[C@H](O)[C@H](C)O3)Oc3ccc(cc3Cl)[C@H]2O)c2ccc(O)c(c2)-c2c(O)cc(O)cc21` (stereo partly drawn) [Compound 17], the MIC in test [3] and in test [5] was 2 µg/mL each time.
As for `CC1(C)S[C@@H]2[C@H](NC(=O)[C@H](N)c3ccccc3)C(=O)N2[C@H]1C(=O)O` [ampicillin], in test [5], the “antibiotic susceptibility profile of the strain” value is listed as “resistant”.
In the case of `CC1(C)S[C@@H]2[C@H](NC(=O)Cc3ccccc3)C(=O)N2[C@H]1C(=O)O` [benzylpenicillin], the “antibiotic susceptibility profile of the strain” value in test [5] is reported as “resistant”.
Consider `O=C(N[C@H](CO)[C@H](O)c1ccc([N+](=O)[O-])cc1)C(Cl)Cl` [chloramphenicol], for which the “antibiotic susceptibility profile of the strain” value in test [3] is recorded as “resistant”.
For the compound `CCN(CC)CCS(=O)(=O)[C@@H]1CCN2C(=O)c3coc(n3)CC(=O)C[C@H](O)/C=C(C)/C=C/CNC(=O)/C=C/[C@@H](C)[C@@H](C(C)C)OC(=O)[C@@H]12` [dalfopristine], the “antibiotic susceptibility profile of the strain” value in test [5] is “sensitive”.
`CC[C@H]1OC(=O)[C@H](C)[C@@H](O[C@H]2C[C@@](C)(OC)[C@@H](O)[C@H](C)O2)[C@H](C)[C@@H](O[C@@H]2O[C@H](C)C[C@H](N(C)C)[C@H]2O)[C@](C)(O)C[C@@H](C)C(=O)[C@H](C)[C@@H](O)[C@]1(C)O` [erythromycin]: the “antibiotic susceptibility profile of the strain” value in test [3] and in test [5] was “resistant” in each case.
Turning to gentamicin, the “antibiotic susceptibility profile of the strain” value in test [3] is reported as “resistant”.
Consider teicoplanin, for which the “antibiotic susceptibility profile of the strain” value in test [3] and in test [5] was “resistant” in each case.

The values are drawn from US10934326B2, “Peripheral modifications on pocket-redesigned vancomycin analogs synergistically improve antimicrobial potency and durability” (priority 2016, dated 2021).
